Measurements from PubChem BioAssay AID256 (DTP/NCI, 2004).
Values joined by “and” are separate entries in the source; they are usually repeats but may differ in a detail not shown here. Equal values may be shown once. Inconclusive results and toxic doses are left out. How the source made its calls: active means survival T/C of 150% or more; inactive means T/C below 125% in these data.

Tested on: CD2F1 mice, L1210 leukemia ip, survival T/C
Assay: NCI In Vivo Anticancer Drug Screen. Data for tumor model L1210 Leukemia (intraperitoneal) in CD2F1 (CDF1) mice
Settings: higher = longer survival
Summary of the method: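 Ratio T/C, where T is the treated-group value and C the vehicle-dosed control value, from mice implanted with a transplantable tumor.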

[1] = endpoint: mean survival time, dose: 100.0 mg/kg/injection, schedule: Q01DX001 (ip), vehicle: saline with Tween-80
[2] = endpoint: mean survival time, dose: 200.0 mg/kg/injection, schedule: Q01DX001 (ip), vehicle: saline with Tween-80
[3] = endpoint: mean survival time, dose: 100.0 mg/kg/injection, schedule: Q01DX009 (ip), vehicle: saline with Tween-80
[4] = endpoint: mean survival time, dose: 200.0 mg/kg/injection, schedule: Q01DX009 (ip), vehicle: saline with Tween-80
[5] = endpoint: mean survival time, dose: 100.0 mg/kg/injection, schedule: Q04DX003 (ip), vehicle: saline
[6] = endpoint: mean survival time, dose: 200.0 mg/kg/injection, schedule: Q04DX003 (ip), vehicle: saline
[7] = endpoint: mean survival time, dose: 400.0 mg/kg/injection, schedule: Q04DX003 (ip), vehicle: saline
[8] = endpoint: mean survival time, dose: 100.0 mg/kg/injection, schedule: Q04DX003 (ip), vehicle: saline with Tween-80
[9] = endpoint: mean survival time, dose: 200.0 mg/kg/injection, schedule: Q04DX003 (ip), vehicle: saline with Tween-80
[10] = endpoint: mean survival time, dose: 400.0 mg/kg/injection, schedule: Q04DX003 (ip), vehicle: saline with Tween-80
[11] = endpoint: mean survival time, dose: 100.0 mg/kg/injection, schedule: Q04DX002 (ip), vehicle: saline with Tween-80
[12] = endpoint: mean survival time, dose: 200.0 mg/kg/injection, schedule: Q04DX002 (ip), vehicle: saline with Tween-80
[13] = endpoint: mean survival time, dose: 400.0 mg/kg/injection, schedule: Q01DX009 (ip), vehicle: saline with Tween-80

Measured: T/C

O=C1CSC(=S)N1/N=C/c1ccccc1Cl
inactive: endpoint: mean survival time, dose: 75.0 mg/kg/injection, schedule: Q01DX001 (ip), vehicle: other 96 % of control | endpoint: mean survival time, dose: 150.0 mg/kg/injection, schedule: Q01DX001 (ip), vehicle: other 96 % of control | endpoint: mean survival time, dose: 300.0 mg/kg/injection, schedule: Q01DX001 (ip), vehicle: other 94 % of control

Cc1cc(=O)[nH]c2cc(Br)ccc12
inactive: [1] 91 % of control | [2] 89 % of control | endpoint: mean survival time, dose: 400.0 mg/kg/injection, schedule: Q01DX001 (ip), vehicle: saline with Tween-80 87 % of control

O/N=C1/C2CCC(C2)C1C(O)(C(F)(F)F)C(F)(F)F (stereo not drawn)
inactive: endpoint: mean survival time, dose: 50.0 mg/kg/injection, schedule: Q01DX009 (ip), vehicle: saline with Tween-80 93 % of control | [1] 102 % of control | [3] 101 % of control | [2] 92 % of control | [4] 89 % of control

O=[N+]([O-])c1ccc(OP2(Oc3ccc([N+](=O)[O-])cc3)=NP(Oc3ccc([N+](=O)[O-])cc3)(Oc3ccc([N+](=O)[O-])cc3)=NP(Oc3ccc([N+](=O)[O-])cc3)(Oc3ccc([N+](=O)[O-])cc3)=NP(Oc3ccc([N+](=O)[O-])cc3)(Oc3ccc([N+](=O)[O-])cc3)=N2)cc1
inactive: endpoint: mean survival time, dose: 25.0 mg/kg/injection, schedule: Q01DX009 (ip), vehicle: saline 100 % of control | endpoint: mean survival time, dose: 50.0 mg/kg/injection, schedule: Q01DX009 (ip), vehicle: saline 100 % of control | endpoint: mean survival time, dose: 100.0 mg/kg/injection, schedule: Q01DX009 (ip), vehicle: saline 100 % of control | [5] 102 % of control | [6] 100 % of control | [7] 96 % of control

C=C1CCCCCCCCCCC1O (stereo not drawn)
inactive: [8] 91 % of control | [9] 95 % of control | [10] 91 % of control

CC1c2ccc3ccccc3c2C(=O)c2cccc(Cl)c21 (stereo not drawn)
inactive: endpoint: median survival time, dose: 50.0 mg/kg/injection, schedule: Q04DX002 (ip), vehicle: saline with Tween-80 100 % of control | endpoint: median survival time, dose: 100.0 mg/kg/injection, schedule: Q04DX002 (ip), vehicle: saline with Tween-80 100 % of control | endpoint: median survival time, dose: 200.0 mg/kg/injection, schedule: Q04DX002 (ip), vehicle: saline with Tween-80 111 % of control | endpoint: median survival time, dose: 400.0 mg/kg/injection, schedule: Q04DX002 (ip), vehicle: saline with Tween-80 88 % of control

CSc1cccc(NC2=NCCO2)c1
inactive: [8] 90 % of control | [9] 93 % of control | [10] 86 % of control

CCCCNP(=S)(NCCCC)NCCCC
inactive: [11] 94 % of control | [12] 94 % of control | endpoint: mean survival time, dose: 400.0 mg/kg/injection, schedule: Q04DX002 (ip), vehicle: saline with Tween-80 98 % of control

COC(=O)C1C(=O)CC2N(C)C1C(C)(C)C2(C)C (stereo not drawn)
inactive: [11] 115 % of control | [12] 107 % of control

O.O.[Co].[Co].[NH-]CC[NH-].[NH-]CC[NH-].[NH-]CC[NH-].[NH-]CC[NH-]
inactive: endpoint: mean survival time, dose: 25.0 mg/kg/injection, schedule: Q04DX002 (ip), vehicle: saline 98 % of control | endpoint: mean survival time, dose: 50.0 mg/kg/injection, schedule: Q04DX002 (ip), vehicle: saline 106 % of control

O=C1C2C3C=CC(C3)C2C(=NS(=O)(=O)c2ccccc2)C2C3C=CC(C3)C12 (stereo not drawn)
inactive: endpoint: mean survival time, dose: 100.0 mg/kg/injection, schedule: Q04DX003 (ip), vehicle: Klucel (hydroxypropylcellulose) (HPC) 91 % of control | endpoint: mean survival time, dose: 200.0 mg/kg/injection, schedule: Q04DX003 (ip), vehicle: Klucel (hydroxypropylcellulose) (HPC) 93 % of control | endpoint: mean survival time, dose: 400.0 mg/kg/injection, schedule: Q04DX003 (ip), vehicle: Klucel (hydroxypropylcellulose) (HPC) 91 % of control

CCCCCCCC/C=C/CCCCCCCCCCCCBr
inactive: [3] 104 % of control | [5] 98 % of control | [4] 93 % of control | [6] 97 % of control | [13] 103 % of control | [7] 92 % of control

O.O.[Cl][Pt+2][Cl].[NH-]C1CCCCC1[NH-] (stereo not drawn)
inactive: endpoint: mean survival time, dose: 2.5 mg/kg/injection, schedule: Q04DX003 (ip), vehicle: dextrose 110 % of control | endpoint: mean survival time, dose: 5.0 mg/kg/injection, schedule: Q04DX003 (ip), vehicle: dextrose 113 % of control | endpoint: mean survival time, dose: 80.0 mg/kg/injection, schedule: Q04DX003 (ip), vehicle: dextrose 96 % of control | endpoint: median survival time, dose: 1.25 mg/kg/injection, schedule: Q04DX003 (ip), vehicle: saline 109 % of control | endpoint: median survival time, dose: 2.5 mg/kg/injection, schedule: Q04DX003 (ip), vehicle: saline 110 % of control | endpoint: median survival time, dose: 4.0 mg/kg/injection, schedule: Q04DX003 (ip), vehicle: saline 110 % of control [middle of 5 runs] | endpoint: median survival time, dose: 5.0 mg/kg/injection, schedule: Q04DX003 (ip), vehicle: saline 119 % of control | endpoint: median survival time, dose: 8.0 mg/kg/injection, schedule: Q04DX003 (ip), vehicle: saline 120 % of control | endpoint: median survival time, dose: 64.0 mg/kg/injection, schedule: Q04DX003 (ip), vehicle: saline 98 % of control and 120 % of control and 124 % of control

COC(=O)N1c2ccc(C)cc2C=CC1C#N (stereo not drawn)
inactive: [3] 95 % of control | [8] 102 % of control | [4] 100 % of control | [9] 105 % of control | [13] 95 % of control | [10] 90 % of control
